Data on four compounds can be found in patent publication US7119089B2, “Phenothiazine kinesin inhibitors” (Cytokinetics, Inc., priority 2001, dated 2006).

In assay [1] the test system is A549 cells. As to conditions: data provided by National Cancer Institute; cited from earlier work.
The subject of assay [2] is Skov-3 cells (human ovarian cancer). The experiment in a line: FACS analysis of cell cycle stage by DNA content (mitotic arrest). The format is cell-based. The settings on record: 24 hours treatment, paclitaxel at 10 nM. Here is the method:
FACS analysis to determine cell cycle stage by measuring DNA content was performed as follows. Skov-3 cells (human ovarian cancer) were split 1:10 for plating in 10 cm dishes and grown to subconfluence with RPMI 1640 medium containing 5% fetal bovine serum (FBS). The cells were then treated with either 10 nM paclitaxel, the test compound or 0.25% DMSO (vehicle for compounds) for 24 hours. Cells were then rinsed off the plates with PBS containing 5 mM EDTA, pelleted, washed once in PBS containing 1% FCS, and then fixed overnight in 85% ethanol at 4° C. Before analysis, the cells were pelleted, washed once, and stained in a solution of 10 μg propidium iodide and 250 μg of ribonuclease (RNAse) A per milliliter at 37° C. for half an hour. Flow cytometry analysis was performed on a Becton-Dickinson FACScan, and data from 10,000 cells per sample was analyzed with Modfit software.

In the case of `COc1cccc2c1C(=O)c1c(O)c3c(c(O)c1C2=O)C[C@@](O)(C(=O)CO)C[C@@H]3O[C@H]1C[C@H](N)[C@H](O)[C@H](C)O1` [doxorubicin], the GI50 (commonly the concentration giving 50% growth inhibition) in assay [1] is 0.063 µM. `NC(=O)NO` [hydroxyurea]: the GI50 in assay [1] was 500 µM. For `O=c1[nH]cc(F)c(=O)[nH]1` [5-fluorouracil], the GI50 in assay [1] was 1 µM. For `CC(=O)O[C@H]1C(=O)[C@@]2(C)[C@H]([C@H](OC(=O)c3ccccc3)[C@]3(O)C[C@H](OC(=O)[C@H](O)[C@@H](NC(=O)c4ccccc4)c4ccccc4)C(C)=C1C3(C)C)[C@]1(OC(C)=O)CO[C@@H]1C[C@@H]2O` [paclitaxel], in assay [2], the “shift in the population of cells from G0/G1 cell cycle stage (2n DNA content) to G2/M cell cycle stage (4n DNA content)” value was “caused a shift in the population of cells from a G0/G1 cell cycle stage (2n DNA content) to a G2/M cell cycle stage (4n DNA content)”. Also, the GI50 in assay [1] was 0.004 µM.
